In patent US8192854B2, “Microbial fuel cell treatment of ethanol fermentation process water” (priority 2009, dated 2012):

Test system: inhibitor-consuming microbial consortium in a microbial fuel cell (MFC-A)
Experiment: Effect of inhibitor concentration on electricity production, air-cathode MFC
Settings: 0.1 g/L to 2 g/L (20.8 mM)
Procedure: After confirmation of electricity production from individual inhibitor molecules, the effect of inhibitor concentration on their removal and electricity production was studied. The experiments were conducted by adding each of the substrates individually, at the various concentrations to study substrate inhibition. From day 51 to 62, HB was used as the energy source for the MFC at concentrations from 0.1 to 1 g/L. From day 63 to day 82, 2-furfural was used as the energy source at a concentration from 0.05 to 2 g/L. From day 83 to day 101, VA was used as the substrate from 0.05 to 4 g/L, followed by use of HMF as substrate from day 129 to day 150 at a concentration from 0.2 to 2 g/L. The MFC was operated with 2-furfural as the substrate between day 102 to 128. Effect of acetate was studied in MFC-B up to a concentration of 10 g/L. The voltage output was monitored at each concentration for a period of up to five days. The effect of 2-furfural on electricity production was studied at a concentration from 0.1 g/L to 2 g/L (20.8 mM) using an air-cathode MFC. […] It should be noted that the substrate utilization was limited by the cathode side in an air-cathode MFC used in this study. […] The effect of acetate concentration was also studied in a different MFC (MFC-B) using a consortium enriched on acetate.

Which “inhibition of electricity production” value does the source give for `O=Cc1ccco1` [2-furfural] here?
Its value is “No inhibition”.
